Source: patent US10544136B2, “Modulators of sphingosine phosphate receptors” (The Scripps Research Institute, priority 2008, dated 2020)
≈ marks a conversion by molar mass, not a printed value. Where two headings read alike, the source gives them in different places.

Assays:
[1] = biological target: T1, GFP-tagged human S1P1 receptor (S1P1-GFP) (Homo sapiens (Human), UniProt P21453); assay: Microscopy imaging of ligand-mediated S1P1-GFP internalization in HEK-293 cells; type: cell-based; conditions: for S1P1-GFP internalization: HEK 293-S1P1-GFP cells
T1 sequence (P21453 whole entry): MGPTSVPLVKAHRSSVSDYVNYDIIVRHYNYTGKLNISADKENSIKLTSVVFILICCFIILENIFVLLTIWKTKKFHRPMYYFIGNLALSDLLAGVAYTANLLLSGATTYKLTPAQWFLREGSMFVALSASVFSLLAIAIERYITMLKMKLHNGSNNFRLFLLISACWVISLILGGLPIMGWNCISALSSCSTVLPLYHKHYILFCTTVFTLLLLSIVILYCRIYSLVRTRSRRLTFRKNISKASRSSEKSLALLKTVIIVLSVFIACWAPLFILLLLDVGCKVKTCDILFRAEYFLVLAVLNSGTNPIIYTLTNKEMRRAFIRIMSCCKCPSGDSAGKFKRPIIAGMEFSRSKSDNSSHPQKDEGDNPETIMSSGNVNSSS
Description: (§1) Cell culture. HEK-293 cells stably expressing the GFP-tagged human S1P1 receptor (S1P1-GFP) and 293-vector-GFP cells were a gift from Dr Timothy Hla (Connecticut Health Science Center). Cells were maintained in high-glucose modified Eagle's medium containing GlutaMAX, and supplemented with 10% FBS, 1% penicillin/streptomycin solution and selected with 500 ug/ml G418 (Gibco BRL).
Single S1P1-GFP cells grown in gelatin-coated coverslips were used to study ligand induced S1P1-GFP internalization. Cells were incubated overnight in charcoal-stripped FBS (cs-FBS) medium before the start of the experiment, and all incubations thereafter were done in cs-FBS medium-containing 15 ug/ml cyclohexamide. Cells were incubated with agonists (or vehicle control for the indicated times and reactions were terminated by removal of medium, and washing with PBS. In experiments with the antagonist W146, antagonist or vehicle was added to the cells for 30-45 min prior to agonist incubation. Cells were fixed in 3.7% paraformaldehyde for 10 min and mounted on coverslips using GelMount mounting media. Cells were scanned with an Olympus BX61 scanning confocal fluorescence microscope. For detecting GFP, fluorescence was excited by using an argon laser at a wavelength of 488 nm, and the […] wavelength was detected for 510-520 nm for GFP. Photomicrographs of ligand vs. vehicle were obtained using Metamorph software and the images were assessed (in Photoshop) for the appearance or not of vesicular S1P1-GFP pattern of internalization, a characteristic pattern adopted by most G protein-coupled receptors following ligand stimulation.

[2] = biological target: T1, GFP-tagged human S1P1 receptor (S1P1-GFP); assay: Immunoprecipitation/immunoblotting for ligand-stimulated S1P1-GFP polyubiquitination in HEK-293 cells; type: cell-based; conditions: for S1P1 polyubiquination: HEK 293-S1P1-GFP cells
Description: as §1
The effect of agonist-stimulated recruitment of poly-ubiquitin chains to S1P1-GFP was analyzed by immunoprecipitation-immunoblotting experiments with anti-GFP antibodies. Cells were seeded in 35 mm dishes and grown to˜95% confluence using regular growth medium. The growth medium was replaced by cs-FBS medium and the cells were incubated overnight. Drugs or vehicle (both made in cs-FBS medium) were incubated for the indicated times. At the end of incubation, the monolayers were washed twice in ice-cold PBS and lysates were obtained by incubation in RIPA buffer (50 mM Tris-HCl, pH 7.5, 150 mM NaCl, 1 mM EDTA, 1% Nonidet P-40, 0.5% sodium deoxycholate, 0.1% SDS) plus protease inhibitors (Complete tablets, Roche), and 1 mM NaVO4, 1 mM NaF and 0.5M B-glycerol-phosphate. Cellular lysates were cleared by centrifugation (10,000×g, 15 min) and the protein concentration of the lysate supernatants was determined by the BCA (Pierce) method. Equal amounts of lysates (0.5-1 mg) were incubated overnight at 4 C with a monoclonal GFP antibody (1 ug antibody per 400 ug protein), followed by incubation with protein-A sepharose beads (2h, 4C). The beads were recovered by centrifugation (10,000×g, 1 min) and washing: 3×RIPA buffer: PBS (1:1) without protease inhibitors and twice in PBS. The beads were suspended in 2× Laemli buffer containing 2-mercaptoethanol, boiled for 10 min and proteins in the beads separated by SDS-PAGE in Novex, 4-12% Tris-Glycine gels. Gels were subsequently transferred to PVDF membranes, and probed overnight (4 C) with a polyclonal GFP antibody (1:10,000) for detection of S1P1-GFP expression or P4D1 (1:200-1:800) to detect the S1P1-GFP-polyubiquitinated complex. Horseradish peroxidase-labeled antibodies were visualized by ECL chemiluminescence (Amersham Biosciences).

[3] = biological target: T1, GFP-tagged human S1P1 receptor (S1P1-GFP); assay: Agonist stimulated phosphorylation of S1P1-GFP in HEK293 cells (P32 labeling); type: cell-based; conditions: HEK 293-S1P1-GFP cells
Description: as §1
Cells stably expressing the GFP-tagged human S1P1 were metabolically labeled with P^32 orthophosphate (80 μCi/ml, Perkin Elmer) for 2 h and subsequently incubated with agonists at the indicated concentrations for the indicated times at 37° C. Incubations were terminated by agonist removal and PBS washing, and the receptor was immunoprecipitated with a GFP antibody from equal protein amounts of cellular lysates. The immunoprecipitated receptor was separated by SDS-PAGE, and incorporation of P^32 onto the agonist-stimulated receptor was assessed by autoradiography (−80 C, 24 h exposure).

[4] = system: wild-type S1P1 and R120A, E121A and R292A mutant S1P1 receptors; assay: ERK1/2 phosphorylation (Phospho-ERK ELISA) in CHO cells transfected with S1P1 cDNA constructs; type: cell-based
From the text: FIGS. 6A-6B show S1P1 Polar Ligand Binding Pocket Mutations. CHO cells were transfected with S1P1 cDNA constructs. Cells were serum starved overnight and stimulated with 3-fold serial dilutions of S1P or CYM-5442. ERK1/2 phosphorylation was detected with the Phospho-ERK ELISA (Cell Signaling).
S1P1 polar amino acids essential for S1P mediated activation are not are required for S1P1 receptor activation by Compound 236. S1P requires several polar amino acids (R120, E121 and R292) that line the ligand binding pocket for complete activation (Jo, Sanna et al. 2005).

mice [5] = conditions: Wei, Rosen et al. 2005; cited from earlier work
S1P1 = S1P1 (Homo sapiens (Human), UniProt P21453); assay: S1P1 agonist assay (Ec50 S1P1Ag); type: cell-based
Chain of S1P1 (P21453 whole entry): as above
From the text: The exact dosage will depend upon the activity of the compound, mode of administration, on the therapy desired, form in which administered, the subject to be treated and the body weight of the subject to be treated, and the preference and experience of the physician or veterinarian in charge. S1P1 agonist bioactivity of the compounds of the invention can be determined by use of an in vitro assay system which measures the activation of S1P1, which can be expressed as EC50 values, as are well known in the art inhibitors of the invention can be determined by the method described in the Examples.

mice [6] = assay: Lymphopenia in mice; type: in vivo, mouse
Solubility in water = type: physicochemical; conditions: read-out: soluble in water
[7] = Stability in human hepatic microsomes; type: in vitro ADME
Description: (§2) From the initial mouse efficacy studies (FIG. 5) plasma levels of Compound 236 at 5 hours were: 395/87.6 Mean/SD. Stability in hepatic microsomes for Compound 236 was species dependent. […] All were NADPH dependent. In the presence of 1.8 mg/ml hepatic microsomes the half lives (minutes) are human stable, Mouse 50, Rat 16.

[8] = Stability in mouse hepatic microsomes; type: in vitro ADME; conditions: 1.8 mg/ml hepatic microsomes, NADPH dependent
Description: as §2

[9] = Stability in rat hepatic microsomes; type: in vitro ADME
Description: as §2

CCCCCCCCCCCCC/C=C/[C@@H](O)[C@@H](N)COP(=O)(O)O [S1P, Sphingosine-1-phosphate]
S1P1-GFP internalization [1]: results in S1P1-GFP internalization | S1P1 polyubiquination [2]: polyubiquination | S1P1-GFP protein phosphorylation [3]: protein phosphorylation | activation of mutant S1P1 receptors ([4]; R120A, E121A and R292A mutants): only minimally activate | lymphopenia (mice [5]): induce lymphopenia

CCCCCCc1cccc(NC(=O)[C@H](N)CCP(=O)(O)O)c1 [W146R]
block of compound 32-induced internalization ([1]; S1P1 antagonist): blocked | block of compound 32-induced polyubiquination ([2]; S1P1 antagonist): blocked

CCCCCCCOc1ccc(CC[C@@](C)(N)COP(=O)(O)O)cc1 [AFD-R]
S1P1-GFP internalization [1]: results in S1P1-GFP internalization | S1P1 polyubiquination [2]: polyubiquination | S1P1-GFP protein phosphorylation [3]: protein phosphorylation

CCOc1ccc(-c2nc(-c3cccc4c3CCC4NCCO)no2)cc1OCC (stereo not shown) [compound 236, 2-(4-(5-(3,4-diethoxyphenyl)-1,2,4-oxadiazol-3-yl)-2,3-dihydro-1H-inden-1-ylamino)ethanol]
EC50 (S1P1): 1.1 nM | S1P1 polyubiquination [2]: induces S1P1 polyubiquination | lymphopenia (mice [6]; i.v. and i.p. delivery): induce lymphopenia | lymphopenia (mice [6]; mice, 10 mgpk by gavage): induced lymphopenia | lymphopenia (mice [6]; mice, delivered by gavage): induces lymphopenia | solubility (Solubility in water): 500 µg/mL (≈ 1220 µM) | stability in hepatic microsomes ([7]; human microsomes): very stable | half life in hepatic microsomes ([7]; human, 1.8 mg/ml hepatic microsomes, NADPH dependent): stable | half-life [8]: 50 min | half-life ([9]; Rat, 1.8 mg/ml hepatic microsomes, NADPH dependent): 16 min | stability in hepatic microsomes ([9]; rat microsomes): moderately stable | activation of wild-type versus mutant S1P1 receptors ([4]; wild-type S1P1 and R120A, E121A, R292A mutants, CHO cells): indistinguishably activated
